Test results from paper PMC8379205, “Bioinspired caries preventive strategy via customizable pellicles of saliva-derived protein/peptide constructs” (Scientific Reports, 2021).
Where two headings read alike, the source gives them in different places. Non-standard residues stand in square brackets, D forms with d. Residues, ends and D or L forms follow the SMILES beside them. No end group written: not given here. pS = N[C@@H](COP(=O)(O)O)C(=O)O

Columns and labels:
[1] = system: Streptococcus mutans U159; assay type: cell-based
Protocol: MICs were assessed for all proteins/peptides against Streptococcus mutants (S. mutans) U159 oral bacteria to identify the lowest concentration at which no bacterial growth is observed. Planktonic bacteria were grown aerobically (10% CO2) in brain heart infusion (BHI) medium (BD BBL™ #211,059, MD, USA) overnight. […] BHI medium was used as a control. Bacteria were inoculated to a final concentration of 3.0 × 10^6 CFU/ml per well. The plates were incubated at 37 °C in a 10% CO2 atmosphere for 24 h under continuous shaking (200 rpm). Absorbance at 620 nm was measured using a microtiter plate reader (BioTek™ SynergyHT, VT, USA).

S. mutans U159 biofilms [2] = assay: Crystal violet (CV) biomass assay on pellicle-coated substrates; assay type: cell-based, Streptococcus mutans; conditions: no sucrose (NS), 24 h biofilm; for Biovolume / biomass of biofilm (crystal violet): pellicle-coated with 200 μM for 2 h at 37 °C, OD 620 nm, compared to whole saliva; for Biofilm structure (brightfield, crystal violet-stained): polystyrene microtiter plates
Protocol: CV assay was performed to assess the remaining bioburden on pellicle-coated substrates with protein/peptide test groups in comparison to human whole saliva. Microtiter plates and HA discs were used as substrates to be pellicle-coated before growing biofilms. Each substrate was pellicle-coated with 50 μl of 200 μM protein/peptide candidates for 2 h at 37 °C under gentle shaking. Pooled filtered whole saliva and the vehicle were used as positive and negative controls respectively. The unbound protein/peptide/saliva were removed, the adjusted inoculum was dispensed without or with 1% sucrose supplementation and the samples were incubated as mentioned above but without agitation. Next day, the samples were rinsed and stained with 0.1% CV. After 15 min, the stain was rinsed, air dried, and photographed. All formed biofilms were structurally characterized with a bright field inverted microscope (EVOS™ xl core, MA, USA) before dissolving the satin, with 33% acetic acid, and reading at OD 620 nm.

[3] = 2-photon immobilization of fluorescently labelled proteins/peptides on human enamel; assay type: binding; conditions: FAM-labelled
Text: This characterization method aimed to monitor the amount of protein/peptide molecules immobilized on enamel in pellicle-mimicking conditions to infer their binding capacity. Z-stacks for pellicle-coated enamel slices were acquired to monitor the immobilization patterns and thus, the binding capacity of fluorescently-labelled proteins/peptides. Enamel samples were ground to 0.5–0.6 mm and polished with 600 silica-grit papers using a polishing machine (Buehler, IL, USA). Samples were then ultrasonicated in a water bath for 20 min, dried and pellicle-coated with fluorescently labeled proteins/peptides as mentioned above. 2-photon images were acquired as aforementioned using 40 × NA 0.8 water immersion objective (LUMPlanFl/IR, Olympus, Japan). Solutions of the tagging molecule (FAM) and the vehicle, 0.01% acetic acid, were used to pellicle-coat the positive and negative controls respectively. The amount of immobilized fluorescent protein/peptide molecules were quantified by calibrating the emitted fluorescence signals[21]^. The mean integrated density was calculated that sums all of the pixels along the acquired z-stacks, 4 images each.

S. mutans U159 biofilms [4] = assay: Live/dead vitality assay of biofilms on pellicle coatings; assay type: cell-based, Streptococcus mutans; conditions: NS and WS conditions, HA discs; order Hist3 followed by Hist5, Hist1 and RR14; 3 independent times, n = 5
Protocol: The vitality of grown biofilms was observed alongside their biomass to determine the antimicrobial efficacy of protein/peptide pellicle-coatings against the attached bacteria in the biofilm state. All the steps are the same as mentioned above till the staining step. Working fluorescent solution was prepared by adding 3 μl of SYTO® 9 stain and 3 μl of Propidium iodide stain to 1 ml of filter-sterilized water. The staining solution was added to each sample very gently so as not to disturb the biofilm. After 20 min light-protected incubation, samples were rinsed with 0.9% NaCl and imaged with fluorescent inverted microscope (EVOS™ M5000, MA, USA) using 20 × lens. All assays were conducted 3 independent times with sample size n = 5.

S. mutans U159 biofilms [5] = assay: 2-photon 3D renderings of biofilms grown on pellicle-coated HA discs; assay type: cell-based, Streptococcus mutans; conditions: 24 h biofilm, cariogenic conditions (1% sucrose), 2-photon 3D volume
Text: Z-stacks were acquired with the 2-photon microscope (Ultima IV, Prairie Technology Inc., WI, USA) for 3D structural and vitality characterization of biofilms grown on protein/peptide pellicle-coated HA discs. Non-descanned high sensitivity multi-alckali photocatode photomultiplier detectors (R3896, Hamamatsu, Japan) were used to allow visualization of multiple fluorophores located deep within the specimen. The infra-red (IR) laser (MAI TAI, Spectra-Physics, USA), tuned at 870 nm, was operated in pulsed mode using a 20 × NA1.0 water-immersion objective (XLUMPlanFLN, Olympus, Japan) with a 2 mm working distance suitable for deep imaging. Images were compiled and analyzed with FIJI software (Fiji Is Just) ImageJ, version: 2.1.0/1.53c https://imagej.net/Contributors[19].

[6] = planktonic S. mutans U159, BHI medium, 3.0 × 10^6 CFU/ml, twofold dilutions 0–512 μM, 37 °C, 10% CO2, 24 h, shaking 200 rpm, absorbance 620 nm

CC(C)C[C@H](NC(=O)[C@H](Cc1ccccc1)NC(=O)[C@H](CCCCN)NC(=O)[C@H](CCC(=O)O)NC(=O)[C@H](CCC(=O)O)NC(=O)[C@H](CO)NC(=O)[C@H](CO)NC(=O)[C@@H](N)CC(=O)O)C(=O)N[C@@H](CCCNC(=N)N)C(=O)O [DR9/2] (H-DSSEEKFLR-OH)
MIC ([1]; U159, 24 h): > 512 µM

DSpSpEEKFLRDSpSpEEKFLR [DR9-DR9, duplicated DR9 construct, domains linked synthetically]
MIC [1, 6]: > 512 µM | Biovolume / biomass of biofilm (crystal violet) (S. mutans U159 biofilms [2]): highest biovolume | Biofilm structure (brightfield, crystal violet-stained) (S. mutans U159 biofilms [2]): clumps and aggregates

N=C(N)NCCC[C@H](NC(=O)[C@H](Cc1ccc(O)cc1)NC(=O)CNC(=O)[C@H](CCCNC(=N)N)NC(=O)[C@H](Cc1c[nH]cn1)NC(=O)[C@H](CO)NC(=O)[C@H](Cc1c[nH]cn1)NC(=O)[C@H](Cc1c[nH]cn1)NC(=O)[C@H](CCCCN)NC(=O)[C@H](CCC(=O)O)NC(=O)[C@H](Cc1c[nH]cn1)NC(=O)[C@H](Cc1ccccc1)NC(=O)[C@H](CCCCN)NC(=O)[C@@H](N)CCCNC(=N)N)C(=O)O [RR14] (H-RKFHEKHHSHRGYR-OH)
MIC ([1]; U159, 24 h): 384 µM

D[pS][pS]EEKFLRRIGRFGYGYGPYQPVPEQPLYPQPYQPQYQQYTF [Statherin]
MIC ([1]; U159, 24 h): > 512 µM | Biovolume / biomass of biofilm (crystal violet) (S. mutans U159 biofilms [2]): highest biovolume | Biofilm structure (brightfield, crystal violet-stained) (S. mutans U159 biofilms [2]): clumps and aggregates | Immobilization capacity on enamel [3]: highest immobilization capacity

CC(C)C[C@H](NC(=O)[C@H](Cc1ccc(O)cc1)NC(=O)[C@H](CC(N)=O)NC(=O)[C@H](CO)NC(=O)[C@H](CCCNC(=N)N)NC(=O)[C@H](Cc1ccc(O)cc1)NC(=O)CNC(=O)[C@H](CCCNC(=N)N)NC(=O)[C@H](Cc1c[nH]cn1)NC(=O)[C@H](CO)NC(=O)[C@H](Cc1c[nH]cn1)NC(=O)[C@H](Cc1c[nH]cn1)NC(=O)[C@H](CCCCN)NC(=O)[C@H](CCC(=O)O)NC(=O)[C@H](Cc1c[nH]cn1)NC(=O)[C@H](Cc1ccccc1)NC(=O)[C@H](CCCCN)NC(=O)[C@H](CCCNC(=N)N)NC(=O)[C@H](CCCCN)NC(=O)[C@H](Cc1ccc(O)cc1)NC(=O)CNC(=O)[C@H](Cc1c[nH]cn1)NC(=O)[C@H](Cc1c[nH]cn1)NC(=O)[C@H](CCCNC(=N)N)NC(=O)[C@H](CCCCN)NC(=O)[C@H](C)NC(=O)[C@H](Cc1c[nH]cn1)NC(=O)[C@H](CO)NC(=O)[C@@H](N)CC(=O)O)C(=O)N[C@@H](Cc1ccc(O)cc1)C(=O)N[C@@H](CC(=O)O)C(=O)N[C@@H](CC(N)=O)C(=O)O [Histatin3]
MIC [1, 6]: 128 µM | Biovolume / biomass of biofilm (crystal violet) (S. mutans U159 biofilms [2]): considerably reduced biomass build-up | Biofilm structure (brightfield, crystal violet-stained) (S. mutans U159 biofilms [2]): more dispersed biofilms | Dead cells / antimicrobial efficacy in biofilm (Syto-9/propidium iodide) (S. mutans U159 biofilms [4]): Many dead cells

Histatin1: native salivary protein, synthesized (DSHEKRHHGYRRKFHEKHHSHREFPFYGDYGSNYLYDN; ends and bridges not checked; UniProt P15515 20-57, looked up)
MIC [1, 6]: > 512 µM | Biovolume / biomass of biofilm (crystal violet) (S. mutans U159 biofilms [2]): highest biovolume | Dead cells / antimicrobial efficacy in biofilm (Syto-9/propidium iodide) (S. mutans U159 biofilms [4]): Many dead cells

CC(C)C[C@H](NC(=O)[C@H](Cc1ccccc1)NC(=O)[C@H](CCCCN)NC(=O)[C@H](CCC(=O)O)NC(=O)[C@H](CCC(=O)O)NC(=O)[C@H](COP(=O)(O)O)NC(=O)[C@H](COP(=O)(O)O)NC(=O)[C@@H](N)CC(=O)O)C(=O)N[C@@H](CCCNC(=N)N)C(=O)O [DR9] (H-D[pS][pS]EEKFLR-OH; N-terminus and C-terminus assumed)
MIC ([1]; U159, 24 h): > 512 µM | Biovolume / biomass of biofilm (crystal violet) (S. mutans U159 biofilms [2]): considerably reduced biomass build-up | Biofilm thickness (S. mutans U159 biofilms [5]): 60–65 μm
